Common to all, as to format: cell-based, rat
Experiment [1] relates to cerebellar granule neurons (CGNs). Description: Hoechst 33342 staining of apoptotic bodies in glutamate-challenged CGNs. The following applies: 24 h glutamate 100 µM. As to the method:
(§1) CGNs were prepared from the 8-day-old Sprague–Dawley rats as described in our previous publication (Li et al., 2005). Briefly, animals were anesthetized and sacrificed, and their cerebella were collected. Then, the freshly collected cerebella were rinsed in cold Kreb’s buffer-BSA and digested with 0.025 % trypsin incubated in a 37°C for 15 min. The reaction was stopped, and the single cell suspension was obtained through pipetting up and down the sedimentary tissue. CGNs were seeded in basal modified Eagle’s medium (ThermoFisher Scientific, Waltham, MA, USA) supplemented with 10 % fetal bovine serum, 25 mM KCl, 2 mM glutamine and 100 units/mL penicillin/streptomycin at a density of 1.5×10^6 cells/mL. […]
Chromatin condensation, the apoptotic characteristic feature, was determined by Hoechst 33342 staining as described in previous publications with some modifications (Guo et al., 2017; Jiajia et al., 2017). […] The nuclei were visualized by using a fluorescence Leica TCS SPE confocal (Leica, Wetzlar, Germany) at 200× magnification. In the observation, cells with bright blue fragmented nuclei, which were showing condensation of chromatin, were counted as apoptotic cells. Condensed nuclei were scored by counting at least 500 cells of three randomly chosen fields for each sample in three separated experiments.

For experiment [2], the system named is ERK and PI3K/Akt/GSK3β pathway. Description: Western blotting of p-ERK, p-Akt, p-GSK3β and Bcl-2 in glutamate-challenged CGNs. The following applies: for upregulation of ERK1/2 phosphorylation induced by glutamate: 2 h pre‐treatment, glutamate 0.5 h.
Text: To further characterize the neuroprotection of MN‐08, the level of the key signaling molecules, such as ERK, Akt, and GSK3β, was examined by Western blotting assay. […] Moreover, pre‐treatment with MN‐08 reversed expression of both p‐Akt and p‐GSK3β with the challenge of glutamate. Akt is an important downstream member of PI3K. To further confirm whether the PI3K/Akt pathway was associated with the neuroprotection of MN‐08 against glutamate‐induced excitotoxicity, specific PI3K inhibitor LY294002 was applied and incubated with MN‐08. […] Taken together, MN‐08 might protect against glutamate‐induce cytotoxicity by reversing the dysregulations of ERK pathway and PI3K/Akt/GSK3β pathway.
Western blotting analysis was performed as previously described with minor modifications (Huang, Li, & Nan, 2017). Proteins were extracted from hippocampal tissue and their concentrations determined by the BCA protein assay kit (Fdbio science, Hangzhou, China). The protein (20 μg) was separated on a 12% SDS-PAGE gel and then transferred to PVDF membranes. The membranes were blocked using 5 % nonfat dry milk for 2 h. The protein blots were incubated with the corresponding primary antibodies against p-Akt (#4060, 1:1000, Cell Signaling Technology), Akt (#4685, 1:1000, Cell Signaling Technology), BACE1 (#5606, 1:1000, Cell Signaling Technology), PS1 (#5643, 1:1000, Cell Signaling Technology), p-GSK3β (#5558, 1:1000, Cell Signaling Technology), GSK3β (#12456, 1:1000, Cell Signaling Technology), Bcl-2 (#3498, 1:1000, Cell Signaling Technology), Bax (#5023, 1:1000, Cell Signaling Technology), Cleaved caspase-3 (#9661, 1:1000, Cell Signaling Technology), Caspase-3 (#9662, 1:1000, Cell Signaling Technology), ADAM10 (#14194, 1:1000, Cell Signaling Technology), APP (#ab241592, 1:1000, Abcam), sAPPα (#ab126723, 1:1000, Abcam), NEP (#ab216341, 1:1000, Abcam), Synapsin I (#ab64581, 1:1000, Abcam), Synapsin II (#ab76494, 1:1000, Abcam), NR2A (#ab124913, 1:2000, Abcam), PSD95 (#ab18258, 1:1000, Abcam), Synaptophysin (#ab32127, 1:1000, Abcam), IDE (#ab133561, 1:1000, Abcam), Drebin (#ab178408, 1:1000, Abcam) and Tau-5 (#ab80579, 1:2000, Abcam) overnight at 4°C. After washing 3 times, the membranes were incubated with the respective HRP-conjugated secondary antibody. ECL Western blotting Detection Reagents (Fdbio science, Hangzhou, China) were used to perform Chemiluminescence detection. Quantitative analysis of protein bands was conducted by the Carestream system (Carestream Health, Inc, USA).
as §1, with “cells/mL. Cytosine arabinoside (10 μM) was added to inhibit the growth of non-neuronal cells at 24 h after seeding. All experiments were carried out after 8 days in vitro.” for “cells/mL.”

The test system of experiment [3] is primary hippocampal neurons. Description: intracellular Ca2+ by Fluo-4 confocal microscopy in primary hippocampal neurons. The following applies: glutamate 100 µM. Here is the method: Rat hippocampal neurons were obtained from 18-day-old Sprague-Dawley rat embryos as previously described with modifications (Subramaniam et al., 2005). The hippocampi were obtained and dissected on ice. Then, the hippocampi were digested with 0.25 % trypsin at 37°C for 15 min. The single neurons were mechanically dissociated by using a Pasteur pipette. The neurons were plated at a density of 2×10^5 cells/mL on 35-mm culture dishes, which were pre-coated with poly-L-lysine (10 μg/mL), in neurobasal eagle’s medium containing 10 % fetal bovine serum, 0.5 mM glutamine, 100 units/mL of penicillin, 100 μg/mL of streptomycin. […]
A confocal laser scanning microscope was used to evaluate relative changes in intracellular calcium concentrations [Ca^2+]i by monitoring Fluo-4 fluorescence after intracellular cleavage of superfused Fluo-4 acetoxymethylester (1 μM, with excitation at 488 nm and emission at 510 nm) (Bkaily, Al-Khoury, Simon, & Jacques, 2017). […] The fluorescence images were obtained by Leica TCS SPE Confocal Microscope and analyzed using the LAS AF software (Leica Microsystems Co., Wetzlar and Mannheim, Germany). The data were obtained by evaluating the fluorescence (F) from selected areas within a cell, following subtraction of background fluorescence, and division by the fluorescence intensity before drug application (F0), expressed as F/F0. […]

Structures are written as SMILES.

For `CCC12CC3CC(N)(C1)CC(CO[N+](=O)[O-])(C3)C2` (centres unmarked) [MN‐08], the “numbers of apoptotic bodies” value in experiment [1] (MN‐08 30 µM) was “significantly reduced”. The “expression of both p‐Akt and p‐GSK3β with the challenge of glutamate” value in experiment [2] (MN‐08 30 µM pre‐treatment) is “reversed”. For the same compound, the “upregulation of ERK1/2 phosphorylation induced by glutamate” value in experiment [2] (MN‐08 30 µM) is “significantly inhibited”. In addition, the “Bcl‐2 downregulation caused by glutamate” value in experiment [2] (pre‐treatment MN‐08 30 µM) is “significantly reversed”. The “intracellular Ca2+ influx caused by glutamate” value in experiment [3] (MN‐08 30 µM) is reported as “inhibited”.

Consider `CC12CC3CC(C)(C1)CC(N)(C3)C2` [memantine, 1‐amino‐3,5‐dimethyladamantane], for which the “numbers of apoptotic bodies” value in experiment [1] (memantine 10 µM) is on record as “significantly reduced”. In addition, the “upregulation of ERK1/2 phosphorylation induced by glutamate” value in experiment [2] (memantine 10 µM) is “significantly inhibited”. Also, in experiment [3] (memantine 10 µM), the “intracellular Ca2+ influx caused by glutamate” value is “inhibited”.
